From patent US9988635B2, “Modulation of growth hormone receptor expression and insulin-like growth factor expression” (Antisense Therapeutics Limited, priority 2003, dated 2018)
In the oligonucleotide strings, read from the 5' end, every base follows the letter of its sugar. An asterisk marks phosphorothioate; unmarked linkages are phosphodiester. Other units and linkages are bracketed, terminal groups are in braces. A string of capitals states the bases alone. e = 2'-O-(2-methoxyethyl) (MOE); [5mC] = 5-methylcytosine; d = 2'-deoxy (DNA)

System: human growth hormone receptor mRNA
Test: Inhibition of human growth hormone receptor mRNA levels in MCF7 cells, quantitative real-time PCR
Format: cell-based
Set-up: concentration or dose not given beside the values
Details: averages from three experiments
Procedure: The human breast carcinoma cell line MCF-7 was obtained from the American Type Culture Collection (Manassas, Va.). MCF-7 cells were routinely cultured in DMEM low glucose (Gibco/Life Technologies, Gaithersburg, Md.) supplemented with 10% fetal calf serum (Gibco/Life Technologies, Gaithersburg, Md.). Cells were routinely passaged by trypsinization and dilution when they reached 90% confluence. Cells were seeded into 96-well plates (Falcon-Primaria #3872) at a density of 7000 cells/well for use in RT-PCR analysis.
When cells reached 65-75% confluency, they were treated with oligonucleotide. For cells grown in 96-well plates, wells were washed once with 100 μL OPTI-MEM™-1 reduced-serum medium (Invitrogen Corporation, Carlsbad, Calif.) and then treated with 130 μL of OPTI-MEM™-1 containing 3.75 μg/mL LIPOFECTIN™ (Invitrogen Corporation, Carlsbad, Calif.) and the desired concentration of oligonucleotide. Cells are treated and data are obtained in triplicate. After 4-7 hours of treatment at 37° C., the medium was replaced with fresh medium. Cells were harvested 16-24 hours after oligonucleotide treatment.
Total RNA was isolated using an RNEASY 96™ kit and buffers purchased from Qiagen Inc. (Valencia, Calif.) following the manufacturer's recommended procedures. Briefly, for cells grown on 96-well plates, growth medium was removed from the cells and each well was washed with 200 μL cold PBS. 150 μL Buffer RLT was added to each well and the plate vigorously agitated for 20 seconds. 150 μL of 70% ethanol was then added to each well and the contents mixed by pipetting three times up and down. The samples were then transferred to the RNEASY 96™ well plate attached to a QIAVAC™ manifold fitted with a waste collection tray and attached to a vacuum source. Vacuum was applied for 1 minute. 500 μL of Buffer RW1 was added to each well of the RNEASY 96™ plate and incubated for 15 minutes and the vacuum was again applied for 1 minute. An additional 500 μL of Buffer RW1 was added to each well of the RNEASY 96™ plate and the vacuum was applied for 2 minutes. 1 mL of Buffer RPE was then added to each well of the RNEASY 96™ plate and the vacuum applied for a period of 90 seconds. The Buffer RPE wash was then repeated and the vacuum was applied for an additional 3 minutes. The plate was then removed from the QIAVAC™ manifold and blotted dry on paper towels. The plate was then re-attached to the QIAVAC™ manifold fitted with a collection tube rack containing 1.2 mL collection tubes. RNA was then eluted by pipetting 140 μL of RNAse free water into each well, incubating 1 minute, and then applying the vacuum for 3 minutes.
Quantitation of growth hormone receptor mRNA levels was accomplished by real-time quantitative PCR using the ABI PRISM™ 7600, 7700, or 7900 Sequence Detection System (PE-Applied Biosystems, Foster City, Calif.) according to manufacturer's instructions. This is a closed-tube, non-gel-based, fluorescence detection system which allows high-throughput quantitation of polymerase chain reaction (PCR) products in real-time. As opposed to standard PCR in which amplification products are quantitated after the PCR is completed, products in real-time quantitative PCR are quantitated as they accumulate. This is accomplished by including in the PCR reaction an oligonucleotide probe that anneals specifically between the forward and reverse PCR primers, and contains two fluorescent dyes. A reporter dye (e.g., FAM or JOE, obtained from either PE-Applied Biosystems, Foster City, Calif., Operon Technologies Inc., Alameda, Calif. or Integrated DNA Technologies Inc., Coralville, Iowa) is attached to the 5′ end of the probe and a quencher dye (e.g., TAMRA, obtained from either PE-Applied Biosystems, Foster City, Calif., Operon Technologies Inc., Alameda, Calif. or Integrated DNA Technologies Inc., Coralville, Iowa) is attached to the 3′ end of the probe. When the probe and dyes are intact, reporter dye emission is quenched by the proximity of the 3′ quencher dye. […]

Substance	% INHIB of human growth hormone receptor mRNA levels
272317 (antisense eA*eG*e[5mC]*e[5mC]*e[5mC]*dA*dA*dA*dT*dA*dT*dT*d[5mC]*d[5mC]*dA*eA*eA*eG*eA*eT) [compound 272317]	65%
272319 (antisense eA*eT*eT*eT*eT*d[5mC]*d[5mC]*dT*dT*d[5mC]*d[5mC]*dT*dT*dG*dA*eG*eG*eA*eG*eA) [compound 272319]	67%
272320 (antisense eA*eG*eA*eT*eT*dG*dT*dG*dT*dT*d[5mC]*dA*d[5mC]*d[5mC]*dT*e[5mC]*e[5mC]*eT*e[5mC]*eT) [compound 272320]	70%
272321 (antisense eA*eA*e[5mC]*e[5mC]*e[5mC]*dA*dA*dG*dA*dG*dT*d[5mC]*dA*dT*d[5mC]*eA*e[5mC]*eT*eG*eT) [compound 272321]	64%
272322 (antisense e[5mC]*eT*eG*eG*e[5mC]*dT*d[5mC]*dA*dT*d[5mC]*dA*dA*dT*dA*dT*e[5mC]*eT*eA*eG*e[5mC]) [compound 272322]	84%
272323 (antisense eT*eG*eT*eG*eT*d[5mC]*dT*dG*dA*dT*dT*d[5mC]*d[5mC]*dT*d[5mC]*eA*eG*eT*e[5mC]*eT) [compound 272323]	67%
272324 (antisense eT*eA*eT*eG*eT*d[5mC]*dA*dT*dT*dG*dG*d[5mC]*dA*dT*dT*eG*eA*eA*eA*eT) [compound 272324]	53%
272325 (antisense eA*eA*eG*eG*e[5mC]*dA*dT*dA*dA*dG*dA*dG*dA*dT*d[5mC]*eT*eG*e[5mC]*eT*eT) [compound 272325]	66%
272326 (antisense eA*e[5mC]*eT*e[5mC]*eA*dG*d[5mC]*dT*d[5mC]*d[5mC]*dT*dT*d[5mC]*dA*dG*eT*eA*eG*eG*eA) [compound 272326]	77%
272327 (antisense eG*eG*eA*e[5mC]*eA*dT*d[5mC]*d[5mC]*d[5mC]*dT*dG*d[5mC]*d[5mC]*dT*dT*eA*eT*eT*e[5mC]*eT) [compound 272327]	60%
272328 (antisense eG*eG*e[5mC]*eA*eT*dT*dG*dT*d[5mC]*d[5mC]*dA*dT*dA*dA*dG*eG*eA*eA*eG*eT) [compound 272328]	85%
272329 (antisense eA*e[5mC]*eT*eT*eT*dT*dT*dG*dG*d[5mC]*dA*dT*d[5mC]*dT*dG*e[5mC]*e[5mC]*eT*e[5mC]*eA) [compound 272329]	63%
272330 (antisense eG*eA*eT*eG*e[5mC]*dA*d[5mC]*dT*dT*dT*dT*dT*dG*dG*d[5mC]*eA*eT*e[5mC]*eT*eG) [compound 272330]	47%
272331 (antisense e[5mC]*eA*eG*eT*e[5mC]*dG*d[5mC]*dA*dT*dT*dG*dA*dG*dT*dA*eT*eG*eA*eG*eG) [compound 272331]	67%
272332 (antisense e[5mC]*eT*e[5mC]*eT*eT*dT*dG*dT*d[5mC]*dA*dG*dG*d[5mC]*dA*dA*eG*eG*eG*e[5mC]*eA) [compound 272332]	75%
272333 (antisense eG*eT*eG*e[5mC]*eT*d[5mC]*dA*d[5mC]*dA*dT*dA*dG*d[5mC]*d[5mC]*dA*e[5mC]*eA*eT*eG*eA) [compound 272333]	72%
272334 (antisense eA*eA*eG*eA*eA*dA*dG*dG*d[5mC]*dT*dA*dA*dG*dG*d[5mC]*eA*eT*eG*eA*eT) [compound 272334]	61%

Substance	% INHIB of human growth hormone receptor mRNA levels
272335 (antisense eA*eA*eA*eT*eA*d[5mC]*dG*dT*dA*dG*d[5mC]*dT*d[5mC]*dT*dT*eG*eG*eG*eA*eA) [compound 272335]	47%
272336 (antisense e[5mC]*eA*eA*eT*e[5mC]*dA*d[5mC]*dT*dG*d[5mC]*dT*dA*d[5mC]*dT*dA*eA*eA*e[5mC]*eA*eG) [compound 272336]	69%
272337 (antisense eA*eA*eA*e[5mC]*eA*dT*dA*dG*d[5mC]*d[5mC]*dA*dT*dT*d[5mC]*dA*eA*eT*eG*e[5mC]*eT) [compound 272337]	39%
272339 (antisense eG*eT*eT*eT*eT*dA*d[5mC]*dA*dT*dA*dT*d[5mC]*d[5mC]*dA*dA*eA*e[5mC]*eT*eA*eT) [compound 272339]	72%
272340 (antisense e[5mC]*eA*eT*e[5mC]*eA*dA*d[5mC]*d[5mC]*dA*dA*dG*dA*dT*dT*dT*eG*eG*eT*eG*eA) [compound 272340]	69%
272341 (antisense eG*eA*eG*eG*e[5mC]*dT*dA*dT*dA*dG*dA*dT*d[5mC]*dT*dT*eA*eT*e[5mC]*eT*e[5mC]) [compound 272341]	65%
272342 (antisense eT*eA*eG*eT*eG*dA*dG*dA*dA*dA*dG*dA*dA*dA*dG*eT*eT*eT*e[5mC]*eT) [compound 272342]	45%
272343 (antisense eA*eA*eT*eG*e[5mC]*dT*d[5mC]*dT*d[5mC]*dA*dA*dG*dA*dA*dT*eG*eA*eT*eG*eT) [compound 272343]	48%
272344 (antisense eA*e[5mC]*eA*e[5mC]*eT*d[5mC]*dA*dA*dT*dT*d[5mC]*dT*dA*dG*d[5mC]*eT*eT*eT*eT*e[5mC]) [compound 272344]	60%
272345 (antisense e[5mC]*eA*eT*e[5mC]*eT*dA*dT*dT*dA*d[5mC]*dA*dA*dA*dT*dA*eA*e[5mC]*eA*eT*eG) [compound 272345]	24%
272346 (antisense e[5mC]*eT*e[5mC]*eT*eT*dG*dG*dA*dG*dA*dA*dA*dA*d[5mC]*d[5mC]*eA*eT*eA*eG*e[5mC]) [compound 272346]	67%
272347 (antisense eT*e[5mC]*eT*eA*e[5mC]*dA*d[5mC]*dT*dG*dA*dT*dG*dA*dT*dA*e[5mC]*eT*eT*eT*eA) [compound 272347]	62%
272348 (antisense e[5mC]*eA*e[5mC]*eA*eG*d[5mC]*dT*dT*dT*dG*dA*dA*dT*dT*dG*eA*eA*eT*eT*eA) [compound 272348]	57%
272349 (antisense eA*eG*eT*e[5mC]*eT*dT*d[5mC]*d[5mC]*dA*dA*dA*d[5mC]*dA*d[5mC]*dA*e[5mC]*eA*eG*e[5mC]*eT) [compound 272349]	68%
272350 (antisense eA*eG*eG*e[5mC]*eT*dG*dT*dT*dG*dT*dG*dA*dA*dA*dT*eA*eG*eT*eA*eA) [compound 272350]	67%
272351 (antisense eA*eT*eA*eG*eA*dA*dA*dT*dG*dT*dT*dG*dT*d[5mC]*dA*eG*eG*e[5mC]*eT*eG) [compound 272351]	57%
